25 molecules from patent US12503475B2 (Centessa Pharmaceuticals (UK) Limited, priority 2020, dated 2025) can be followed below.

The test concerns the target T1, human orexin type 2 receptor (hOX2R) (Homo sapiens, UniProt O43614).
T1 construct: expressed in transfected cells
T1 sequence (O43614 1-444): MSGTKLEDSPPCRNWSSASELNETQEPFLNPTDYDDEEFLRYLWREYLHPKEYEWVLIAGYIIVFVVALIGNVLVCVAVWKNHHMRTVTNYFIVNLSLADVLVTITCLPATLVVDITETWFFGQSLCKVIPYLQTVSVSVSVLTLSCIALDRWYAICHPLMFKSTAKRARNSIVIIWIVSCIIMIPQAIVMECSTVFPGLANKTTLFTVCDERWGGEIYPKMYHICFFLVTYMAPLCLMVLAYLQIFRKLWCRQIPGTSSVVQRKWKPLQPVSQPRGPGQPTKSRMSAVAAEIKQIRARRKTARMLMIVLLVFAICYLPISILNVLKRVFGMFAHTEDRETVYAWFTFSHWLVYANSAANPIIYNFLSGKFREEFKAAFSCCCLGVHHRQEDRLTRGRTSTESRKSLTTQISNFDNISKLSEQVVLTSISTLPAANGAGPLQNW
As to the kind of experiment: Measurement of orexin type 2 receptor agonist activity (FLIPR calcium fluorescence). Particulars: CHO cells expressing hOX2R, FLIPR calcium fluorescence; for EC50: read-out: hOx2 pEC50 (converted); for Emax: CHO, read-out: hOx2 Emax (%). Type of test: cell-based. Here is the method: The biological activity of the compounds of the present disclosure may be determined in cells stably expressing either orexin type 2 or orexin type 1 receptor. […] The agonist activity of a compound of the present disclosure may be determined by fluorescence value.
Stable cell line generation.
Measurement of orexin type 2 receptor agonist activity. […] As used herein, E. indicates the value at 10 μM concentration when orexin A is converted to a full agonist (maximum value of agonist activity. 100%).

For the molecule `CS(=O)(=O)NC1C(Cc2cccc(-c3ccccc3)c2)N(C(=O)[C@H]2C[C@H](F)C2)CC12CC2` (mixture of isomers) [Compound 49, N-(6-([1,1′-biphenyl]-3-ylmethyl)-5-((1r,3r)-3-fluorocyclobutane-1-carbonyl)-5-azaspiro[2.4]heptan-7-yl)methanesulfonamide], the EC50 was 1 to 10 nM and the Emax was in the range of 90 to 100%.
In the same order, the values of `CS(=O)(=O)NC1C(Cc2cccc(-c3ccccc3)c2F)N(C(=O)C2(O)CCC2)CC12CC2` (racemic) [Compound 50, N-(6-((2-fluoro-[1,1′-biphenyl]-3-yl)methyl)-5-(1-hydroxycyclobutane-1-carbonyl)-5-azaspiro[2.4]heptan-7-yl)methanesulfonamide] are 0.0794 to 1 nM and 90 to 100%.
In the same order, the values of `CS(=O)(=O)NC1C(Cc2cccc(-c3cccc(F)c3)c2)N(C(=O)C2(O)CCC2)CC12CC2` (racemic) [Compound 51, N-(6-((3′-fluoro-[1,1′-biphenyl]-3-yl)methyl)-5-(1-hydroxycyclobutane-1-carbonyl)-5-zaspiro[2.4]heptan-7-yl)methanesulfonamide] are 1 to 10 nM and 90 to 100%.
On to `CCNC(=O)N1CC2(CC2)C(NS(=O)(=O)CC)C1Cc1cccc(-c2ccccc2)c1F` (racemic) [Compound 52, N-ethyl-7-(ethylsulfonamido)-6-((2-fluoro-[1,1′-biphenyl]-3-yl)methyl)-5-azaspiro[2.4]heptane-5-carboxamide], for which the EC50 is 0.0794 to 1 nM and the Emax fell in the range of 90 to 100%.
In the same order, the values of `CC1CN(C(=O)N2CC3(CC3)C(NS(C)(=O)=O)C2Cc2cccc(-c3ccccc3)c2)C1` (racemic) [Compound 57, N-(6-([1,1′-biphenyl]-3-ylmethyl)-5-(3-methylazetidine-1-carbonyl)-5-azaspiro[2.4]heptan-7-yl)methanesulfonamide] are 1 to 10 nM and 90 to 100%.
As for `CS(=O)(=O)NC1C(Cc2cccc(-c3ccccc3)c2)N(C(=O)C23CC2C3)CC12CC2` (racemic) [Compound 66, N-(6-([1,1′-biphenyl]-3-ylmethyl)-5-(bicyclo[1.1.0]butane-1-carbonyl)-5-azaspiro[2.4]heptan-7-yl)methanesulfonamide], the EC50 was 10 to 100 nM and the Emax fell in the range of 90 to 100%.
In the same order, the values of `CS(=O)(=O)NC1C(Cc2cccc(-c3ccccc3)c2F)N(C(=O)[C@H]2C[C@H](F)C2)CC12CC2` (mixture of isomers) [Compound 90, N-(6-((2-fluoro-[1,1′-biphenyl]-3-yl)methyl)-5-((1r,3r)-3-fluorocyclobutane-1-carbonyl)-5-azaspiro[2.4]heptan-7-yl)methanesulfonamide] are 1 to 10 nM and 90 to 100%.
In the case of `CS(=O)(=O)NC1C(Cc2cccc(-c3ccccc3)c2F)N(C(=O)[C@H]2C[C@@H](F)C2)CC12CC2` (mixture of isomers) [Compound 91, N-(6-((2-fluoro-[1,1′-biphenyl]-3-yl)methyl)-5-((1s,3s)-3-fluorocyclobutane-1-carbonyl)-5-azaspiro[2.4]heptan-7-yl)methanesulfonamide], the EC50 was 10 to 100 nM and the Emax was in the range of 90 to 100%.
Consider `CN(C)S(=O)(=O)NC1C(Cc2cccc(-c3ccccc3)c2F)N(C(=O)C2CCC2)CC12CC2` (racemic) [Compound 92, N-(5-(cyclobutanecarbonyl)-6-((2-fluoro-[1,1′-biphenyl]-3-yl)methyl)-5-azaspiro[2.4]heptan-7-yl)-N,N-dimethylsulfuric diamide], for which the EC50 was 1 to 10 nM and the Emax lay within 90 to 100%.
With `O=C(N1CC(F)C1)N1CC2(CC2)C(NS(=O)(=O)CF)C1Cc1cccc(-c2ccccc2)c1F` (racemic) [Compound 105, 1-fluoro-N-(6-((2-fluoro-[1,1′-biphenyl]-3-yl)methyl)-5-(3-fluoroazetidine-1-carbonyl)-5-azaspiro[2.4]heptan-7-yl)methanesulfonamide], the EC50 is 1 to 10 nM and the Emax was in the range of 90 to 100%.
In the case of `O=C(C1CCC1)N1CC2(CC2)C(NS(=O)(=O)CF)C1Cc1cccc(-c2ccccc2)c1F` (racemic) [Compound 106, N-(5-5(cyclobutanecarbonyl)-6-((2-fluoro-[1,1′-biphenyl]-3-yl)methyl)-5-azaspiro[2.4]heptan-7-yl)-1-fluoromethanesulfonamide], the EC50 is 0.0794 to 1 nM and the Emax fell in the range of 90 to 100%.
In the same order, the values of `O=C(N1CC2(CC2)C(NS(=O)(=O)CF)C1Cc1cccc(-c2ccccc2)c1F)C1(O)CCC1` (racemic) [Compound 108, 1-fluoro-N-(6-((2-fluoro-[1,1′-biphenyl]-3-yl)methyl)-5-(1-hydroxycyclobutane-1-carbonyl)-5-azaspiro[2.4]heptan-7-yl)methanesulfonamide] are 0.0794 to 1 nM and 90 to 100%.
In the same order, the values of `CCNC(=O)N1CC2(CC2)C(NS(=O)(=O)CF)C1Cc1cccc(-c2ccccc2)c1F` (racemic) [Compound 109, N-ethyl-6-((2-fluoro-[1,1′-biphenyl]-3-yl)methyl)-7-((fluoromethyl)sulfonamido)-5-azaspiro[2.4]heptane-5-carboxamide] are 0.0794 to 1 nM and 90 to 100%.
Take `CS(=O)(=O)N[C@@H]1[C@H](Cc2cccc(-c3ccccc3)c2)N(C(=O)C2(C#N)CCC2)CC12CC2` (racemic) [Compound 295]: the EC50 is 10 to 100 nM and the Emax was 90 to 100%.
In the same order, the values of `CN(C)C(=O)N1CC2(CC2)[C@H](NS(C)(=O)=O)[C@@H]1Cc1cccc(-c2cc(F)cc(F)c2)c1` (racemic) [Compound 296, 6-((3′,5′-difluoro-[1,1′-biphenyl]-3-yl)methyl)-N,N-dimethyl-7-(methylsulfonamido)-5-azaspiro[2.4]heptane-5-carboxamide] are 10 to 100 nM and 90 to 100%.
With `CC(C)C(=O)N1CC2(CC2)[C@H](NS(C)(=O)=O)[C@@H]1Cc1cccc(-c2ccccc2F)c1` (racemic) [Compound 297], the EC50 is 1 to 10 nM and the Emax lay in the range of 90 to 100%.
In the same order, the values of `CS(=O)(=O)N[C@@H]1[C@H](Cc2cccc(-c3ccccc3)c2)N(C(=O)C2(O)CCC2)CC12CC2` (racemic) [Compound 298] are 1 to 10 nM and 90 to 100%.
For the molecule `CC[C@@H](O)C(=O)N1CC2(CC2)[C@H](NS(C)(=O)=O)[C@@H]1Cc1cccc(-c2ccccc2)c1` (racemic) [Compound 300], the EC50 is 10 to 100 nM and the Emax lay within 90 to 100%.
In the same order, the values of `CS(=O)(=O)N[C@@H]1[C@H](Cc2cccc(-c3ccccc3)c2)N(C(=O)C2CCC2)CC12CC2` (racemic) [Compound 302, N-(-6-([1,1′-biphenyl]-3-ylmethyl)-5-(cyclobutanecarbonyl)-5-azaspiro[2.4]heptan-7-yl)methanesulfonamide] are 1 to 10 nM and 90 to 100%.
In the same order, the values of `CCNC(=O)N1CC2(CC2)[C@H](NS(C)(=O)=O)[C@@H]1Cc1cccc(-c2ccccc2)c1` (racemic) [Compound 303, 6-([1,1′-biphenyl]-3-ylmethyl)-N-ethyl-7-(methylsulfonamido)-5-azaspiro[2.4]heptane-5-carboxamide] are 1 to 10 nM and 90 to 100%.
In the same order, the values of `CC(C)C(=O)N1CC2(CC2)[C@H](NS(=O)(=O)N(C)C)[C@@H]1Cc1cccc(-c2ccccc2)c1` (racemic) [Compound 304] are 10 to 100 nM and 90 to 100%.
Take `COCCNC(=O)N1CC2(CC2)[C@H](NS(C)(=O)=O)[C@@H]1Cc1cccc(-c2ccccc2)c1F` (racemic) [Compound 306, 6-((2-fluoro-[1,1′-biphenyl]-3-yl)methyl)-N-(2-methoxyethyl)-7-(methylsulfonamido)-5-azaspiro[2.4]heptane-5-carboxamide]: the EC50 is 10 to 100 nM and the Emax is 90 to 100%.
Turning to `CS(=O)(=O)N[C@@H]1[C@H](Cc2cccc(-c3ccccc3)c2F)N(C(=O)NCCO)CC12CC2` (racemic) [Compound 307, 6-((2-fluoro-[1,1′-biphenyl]-3-yl)methyl)-N-(2-hydroxyethyl)-7-(methylsulfonamido)-5-azaspiro[2.4]heptane-5-carboxamide], the EC50 is 1 to 10 nM and the Emax lay in the range of 90 to 100%.
In the case of `CS(=O)(=O)N[C@@H]1[C@H](Cc2cccc(-c3ccccc3)c2)N(C(=O)[C@H]2C[C@@H](F)C2)CC12CC2` (racemic) [Compound 308, N-(-6-([1,1′-biphenyl]-3-ylmethyl)-5-((1s,3R)-3-fluorocyclobutane-1-carbonyl)-5-azaspiro[2.4]heptan-7-yl)methanesulfonamide], the EC50 is 10 to 100 nM and the Emax is 90 to 100%.
`C[C@H]1C[C@@H]1S(=O)(=O)N[C@H]1[C@@H](Cc2cccc(-c3ccccc3)c2)N(C(=O)[C@H]2CCO2)CC12CC2` (relative stereo) [Compound 312, (1S*,2S*)-N-(6R,7R)-6-([1,1′-biphenyl]-3-ylmethyl)-5-((R)-oxetane-2-carbonyl)-5-azaspiro[2.4]heptan-7-yl)-2-methylcyclopropane-1-sulfonamide]: the EC50 is 10 to 100 nM and the Emax is 90 to 100%.

As usually defined, the Emax is the greatest response seen or fitted, relative to the assay's reference.
